For series [1], the system named is CYP2B6. The series can be described thus: Induction/inhibition of CYP2B6 activity in cryopreserved human hepatocytes (S-mephenytoin). Conditions: 1 mM Phenobarbital; each hepatocyte donor. The source says: (§1) Hepatocytes from three human donors were obtained from a cryopreserved hepatocyte bank (In Vitro Technologies, Inc., USA). After thawing, viable hepatocytes were transferred to collagen-coated 48-well plates for attachment in plating medium (DMEM stock (Dulbecco's modified Eagle's medium, supplemented with bovine serum albumin, fructose, N-(2-hydroxyethyl)piperazine-N′-(2-ethanesulfonate) (HEPES), and sodium bicarbonate), supplemented with antibiotics, bovine serum, hydrocortisone, insulin and minimum essential medium (MEM) nonessential amino acids). After attachment to the collagen matrix, plating medium was replaced with sandwich medium (plating medium supplemented with VITROGEN) and incubated until use.
(§2) The supplemented KHB was replaced with 150 μL supplemented KHB containing the appropriate isoform-selective substrate and incubated for 4 hrs prior to termination by adding 150 μL ice-cold methanol, except for the CYP2C8 incubations which were terminated by adding 150 μL acetonitrile.
(§3) All substrates were dissolved in acetonitrile.
(§4) Replicate trials and controls were performed. […] Additionally, reference control samples were included to evaluate inducibility of CYP2B6, CYP2C9, and CYP2C19 in the test system.
(§5) Mean specific activity values with associated p-values≦0.05 were deemed to be statistically significant.

The target of a further series is CYP2E1 (Homo sapiens, UniProt P05181). Put plainly: Chemical inhibition of metaxalone turnover in human liver microsomes, CYP2E1 inhibitor clomethiazole. Conditions: both, human, microsomes, pH 7.4, Inhibition of metaxalone disappearance (% inhibition of turnover).
Sequence of CYP2E1 (P05181 whole entry): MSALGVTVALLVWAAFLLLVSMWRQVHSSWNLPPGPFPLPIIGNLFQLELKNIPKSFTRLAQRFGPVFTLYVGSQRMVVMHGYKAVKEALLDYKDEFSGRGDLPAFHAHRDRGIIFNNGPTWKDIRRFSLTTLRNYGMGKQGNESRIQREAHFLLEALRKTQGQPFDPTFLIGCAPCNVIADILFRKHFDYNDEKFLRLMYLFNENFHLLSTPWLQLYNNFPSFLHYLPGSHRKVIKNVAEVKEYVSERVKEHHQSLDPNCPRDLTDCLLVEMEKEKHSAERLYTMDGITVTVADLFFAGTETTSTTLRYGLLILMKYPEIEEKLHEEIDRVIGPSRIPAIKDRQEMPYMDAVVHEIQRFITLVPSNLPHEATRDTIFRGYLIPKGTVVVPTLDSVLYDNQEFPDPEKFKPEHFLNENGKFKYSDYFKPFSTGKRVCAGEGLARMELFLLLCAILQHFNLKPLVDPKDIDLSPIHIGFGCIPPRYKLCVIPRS
Series [2] has as its target T1, CYP1A2 (Homo sapiens, UniProt P05177).
T1 sequence (P05177 1-516): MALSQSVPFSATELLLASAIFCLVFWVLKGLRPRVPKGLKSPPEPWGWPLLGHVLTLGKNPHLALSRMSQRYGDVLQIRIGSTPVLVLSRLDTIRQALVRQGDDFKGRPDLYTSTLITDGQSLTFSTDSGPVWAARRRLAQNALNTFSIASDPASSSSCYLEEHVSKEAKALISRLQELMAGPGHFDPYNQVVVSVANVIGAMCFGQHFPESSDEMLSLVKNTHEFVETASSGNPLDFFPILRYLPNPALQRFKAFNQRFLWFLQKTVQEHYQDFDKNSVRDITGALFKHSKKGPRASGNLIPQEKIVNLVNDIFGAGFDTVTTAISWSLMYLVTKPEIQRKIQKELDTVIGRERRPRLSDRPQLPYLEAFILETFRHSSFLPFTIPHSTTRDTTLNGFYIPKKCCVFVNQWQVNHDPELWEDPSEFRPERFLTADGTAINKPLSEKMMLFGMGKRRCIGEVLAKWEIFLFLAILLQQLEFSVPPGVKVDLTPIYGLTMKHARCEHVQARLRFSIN
The series can be described thus: Chemical inhibition of metaxalone turnover in human liver microsomes, CYP1A2 selective inhibitor furafylline. Conditions: both, pooled human liver microsomes.

A further series concerns the target CYP3A4 (Homo sapiens, UniProt P08684). The series can be described thus: in vitro. Conditions: both, pooled human liver microsomes.
For series [3], the system named is CYP1A2. Put plainly: Induction/inhibition of CYP1A2 activity in cryopreserved human hepatocytes after 48 h exposure (phenacetin). Conditions: human, 48 h, 50 μM.
Description: as §1, §2, §3, §4, §5

Another series concerns CYP2A6. The series can be described thus: Chemical inhibition of metaxalone turnover in human liver microsomes, CYP2A6 inhibitor pilocarpine. As to conditions: both, human, microsomes, pH 7.4, Inhibition of metaxalone disappearance (% inhibition of turnover).
A further series concerns the target T2, CYP2C8 (Homo sapiens, UniProt P10632).
T2 sequence (P10632 1-490): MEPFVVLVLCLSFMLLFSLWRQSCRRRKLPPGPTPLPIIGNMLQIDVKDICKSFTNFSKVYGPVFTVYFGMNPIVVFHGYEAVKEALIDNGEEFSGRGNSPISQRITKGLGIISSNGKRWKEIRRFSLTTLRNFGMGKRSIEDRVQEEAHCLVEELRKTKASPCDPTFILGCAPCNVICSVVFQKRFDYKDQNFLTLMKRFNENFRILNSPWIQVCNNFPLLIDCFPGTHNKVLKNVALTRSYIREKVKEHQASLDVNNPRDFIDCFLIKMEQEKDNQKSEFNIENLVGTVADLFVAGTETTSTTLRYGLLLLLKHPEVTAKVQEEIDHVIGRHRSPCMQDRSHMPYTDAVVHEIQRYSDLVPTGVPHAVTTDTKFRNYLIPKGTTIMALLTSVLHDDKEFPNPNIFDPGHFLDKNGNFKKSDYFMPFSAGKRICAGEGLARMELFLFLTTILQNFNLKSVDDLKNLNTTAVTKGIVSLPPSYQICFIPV
Put plainly: Chemical inhibition of metaxalone turnover in human liver microsomes, CYP2C8 inhibitor quercetin. Conditions: both, human, pooled human liver microsomes.

The next series addresses CYP2C9 (Homo sapiens, UniProt P11712). The series can be described thus: in vitro. As to conditions: both, microsomes, pH 7.4, Inhibition of metaxalone disappearance (% inhibition of turnover).
For series [4], the system named is CYP2B6. The series can be described thus: Chemical inhibition of metaxalone turnover in human liver microsomes, CYP2B6 inhibitor thio-TEPA. As to conditions: both, human, microsomes, pH 7.4, Inhibition of metaxalone disappearance (% inhibition of turnover).
[5] abbreviates: pH 7.4, probe metaxalone 0.75 μM (disappearance).
Setting [6] is: pH 7.4, probe metaxalone 7.5 μM (disappearance).

Sequence of CYP2C9 (P11712 whole entry): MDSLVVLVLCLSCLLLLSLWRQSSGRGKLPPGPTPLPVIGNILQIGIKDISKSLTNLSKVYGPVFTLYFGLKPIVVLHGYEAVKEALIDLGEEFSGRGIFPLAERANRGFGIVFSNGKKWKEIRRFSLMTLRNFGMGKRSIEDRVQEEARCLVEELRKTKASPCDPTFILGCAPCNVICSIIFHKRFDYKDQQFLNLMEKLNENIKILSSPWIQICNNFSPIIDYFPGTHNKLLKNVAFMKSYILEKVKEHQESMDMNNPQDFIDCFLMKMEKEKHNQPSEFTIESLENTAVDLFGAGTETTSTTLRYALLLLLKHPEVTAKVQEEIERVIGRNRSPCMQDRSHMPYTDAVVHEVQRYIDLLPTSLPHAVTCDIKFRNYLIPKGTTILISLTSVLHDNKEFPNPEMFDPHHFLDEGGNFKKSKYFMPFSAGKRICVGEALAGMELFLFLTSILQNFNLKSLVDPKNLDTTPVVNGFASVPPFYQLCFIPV
Sequence of CYP3A4 (P08684 whole entry): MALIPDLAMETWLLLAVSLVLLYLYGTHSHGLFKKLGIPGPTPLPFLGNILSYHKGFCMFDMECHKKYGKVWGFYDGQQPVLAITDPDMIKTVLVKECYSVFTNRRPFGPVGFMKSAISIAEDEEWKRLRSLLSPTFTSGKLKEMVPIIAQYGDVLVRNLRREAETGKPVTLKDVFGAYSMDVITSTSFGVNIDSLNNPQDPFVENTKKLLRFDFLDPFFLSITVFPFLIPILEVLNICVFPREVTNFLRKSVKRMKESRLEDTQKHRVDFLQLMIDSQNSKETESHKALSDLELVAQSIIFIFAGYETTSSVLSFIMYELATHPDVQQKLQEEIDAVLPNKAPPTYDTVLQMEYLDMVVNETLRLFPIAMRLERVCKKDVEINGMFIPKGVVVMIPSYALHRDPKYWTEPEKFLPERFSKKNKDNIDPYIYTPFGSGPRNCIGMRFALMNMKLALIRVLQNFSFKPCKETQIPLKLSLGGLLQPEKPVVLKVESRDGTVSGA

`CCC1(c2ccccc2)C(=O)NC(=O)NC1=O` [Phenobarbital]: the “induction (reference control)” value with CYP2B6 [1] is recorded as “statistically significant amount of induction”.

For the molecule `Cc1ncsc1CCCl` [clomethiazole], the figures for the inhibition at 60 min on CYP2E1 (0.75 μM metaxalone) and against CYP2E1 (7.5 μM metaxalone) were 113 ± 21% and 98.6 ± 4.9%, respectively.

Take `Cc1nc2c([nH]1)c(=O)n(C)c(=O)n2Cc1ccco1` [furafylline]: the inhibition at 60 min against CYP1A2 [2] (setting [5]) is 111 ± 29%; on CYP1A2 [2] (setting [6]), 80.6 ± 2.4%.

With `CC(=O)N1CCN(c2ccc(OCC3COC(Cn4ccnc4)(c4ccc(Cl)cc4Cl)O3)cc2)CC1` (stereo not shown) [ketoconazole], the values for the inhibition at 60 min against CYP3A4 (setting [5]) and at CYP3A4 (setting [6]) were 126 ± 5% and 130 ± 18%, respectively.

In the case of `COc1ccc2[nH]c([S+]([O-])Cc3ncc(C)c(OC)c3C)nc2c1` (stereo not shown) [omeprazole], the induction with CYP1A2 [3] is on record as ≥ 200%.

With `CC[C@@H]1C(=O)OC[C@@H]1Cc1cncn1C` [pilocarpine], the inhibition at 60 min in the series with CYP2A6 (0.75 μM metaxalone) came to 46.2 ± 5.7%; in the series with CYP2A6 (7.5 μM metaxalone) it was 50.8 ± 6.9%.

For `O=c1c(O)c(-c2ccc(O)c(O)c2)oc2cc(O)cc(O)c12` [quercetin], the figures for the inhibition at 60 min against CYP2C8 (setting [5]) and against CYP2C8 (setting [6]) were 77.2 ± 13.6% and 84.7 ± 18.3%, respectively.

For `Nc1ccc(S(=O)(=O)Nc2ccnn2-c2ccccc2)cc1` [sulfaphenazole], the inhibition at 60 min against CYP2C9 (0.75 μM metaxalone) came to 81.4 ± 0.3%; against CYP2C9 (7.5 μM metaxalone), 52.8 ± 2.9%.

For `S=P(N1CC1)(N1CC1)N1CC1` [thio-TEPA], the results for the inhibition at 60 min with CYP2B6 [4] (0.75 μM metaxalone) and in the series on CYP2B6 [4] (7.5 μM metaxalone) were 58.3 ± 2.4% and 43.3 ± 13.8%, respectively.
